The values that follow come from PMC4549706, “Rational Design of Highly Potent and Slow-Binding Cytochrome bc1 Inhibitor as Fungicide by Computational Substitution Optimization” (Scientific Reports, 2015).

For assay [1], the system named is Sphaerotheca fuliginea (S. fuliginea). The assay can be described thus: Greenhouse fungicidal activity, potted cucumber, powdery mildew. It is filed as in vivo. The settings on record: Podosphaera fuliginea. As to the method: (§1) For a further validation, the controlling efficacy of compound 18 against downy mildew and powdery mildew disease was tested in greenhouse and field models.
(§2) The fungicidal activity of compound 18 against P. cubensis and S. fuliginea was evaluated according to a previously published method[30] and a potted-plant test method was adopted. […]
(§3) Greenhouse Fungicidal Activity
(§4) The fungicidal activity of compound 18 against P. cubensis and S. fuliginea was evaluated according to a previously published method 17 and a potted-plant test method was adopted. Commercial fungicide AZ was evaluated as a control under the same conditions.
(§5) Cucumber seeds were soaked in water for 2 h at 50℃ and then were kept moist for 24 h at 28℃ in an incubator. When the radicles grew to 0.5 cm, the seeds were grown in plastic pots containing a 1:1 (v/v) mixture of vermiculite and peat. At the stage of two leaves, all of the cucumber plants used for inoculations were divided into two groups to test for protective and curative effects. In the protective action, compound 18 and commercial fungicide AZ were sprayed on the leaves before the inoculation. However, the fungal inoculation and chemical spraying are reverse in the […] action.
(§6) In the protective action, compound 18 and commercial fungicide AZ were sprayed with a hand spray on the surface of the seed leaves at concentrations of 200, 100, 50, 25, 12.5, 6.25, 3.125, 1.5625 mg/L. After 2 h, inoculations of P. cubensis and S. fuliginea were carried out by spraying a conidial suspension (concentration […]), which was repeated 4 times.
(§7) After inoculation, the cucumber seedlings were cultured in a culture room at 25±2℃, 70%~80% relative humidity, and 16L:8D photoperiod for 8 d. In the curative action, the fungal inoculation and chemical spraying were reversed with the protective action. Foliar spray with fungicides to inoculated cucumber plants (before disease expression) till near-run-oﬀ was made on the 7th and 15th day after emergence. The fungicidal activity was evaluated when the nontreated cucumber plant fully developed symptoms. The area of inoculated and treated leaves covered by disease symptoms was assessed and compared to that of nontreated ones to determine the average disease index.
(§8) The disease range (i) was visually evaluated on the […]rst true leaf and ranked as a percentage infected area using a rating of 0, 1, 3, 5, 7, or 9, denoting proportions of disease over the whole leaf area of 0%, < 5%, 6–10%, 11–25%, 26–50%, and > 50%, respectively 18.
(§9) The disease index and control effect of compound 18 were calculated via the following […]
(§10) Disease index (%) = ∑(Ni × i)/(N × 9) × 100 […]

For assay [2], the system named is Pseudoperonospora cubensis (Berk. et Curt.). The assay can be described thus: In vivo fungus growth inhibitory rate at 200 mg/L, downy mildew. How it is done: [a] Compounds are named as “series number-site number plus substitution group number” a: -F, b: -Cl, c:
-Br, d: -NO2, e: -CH3, f: -CF3, g: -OCH3, h: -OH, i: -NH2, j: -COOH.
[b] Substitution number and group.
[c] CH is “series 1” and N is “series 2”. […]
Table S2 Fungus growth inhibitory rate of target compounds (200 mg/L).
Comp. No. R X Sphaerotheca fuliginea Pseudoperonospora cubensis

Assay [3] relates to Pseudoperonospora cubensis (P. cubensis). The assay can be described thus: Greenhouse fungicidal activity, potted cucumber, downy mildew. The format is in vivo. As to the method: as §1, §2, §3, §4, §5, §6, §7, §8, §9, §10
Assay [4] concerns P. cubensis. The assay can be described thus: Field trial, cucumber naturally infected, downy mildew. The format is in vivo, Pseudoperonospora cubensis. The settings on record: 7th day. How it is done: To further study the potential of compound 18 against powdery mildew and downy mildew, field experiments were conducted during the growing season of summer squash and cucumber. The summer squash plants at a fruiting stage naturally infected by S. fuliginea were used. […] Almost no lesions were observed on the leaves of summer squash. […] Lesions on the leaves of control plants, however, expanded quickly, and intense fungal hyphae could be observed. The curative effect is approximately 64.85% for the AZ-treated (93.75 g.ai/ha) summer squash. In addition, field trials for the treatment of downy mildew of cucumber were also performed. Cucumber plants naturally infected by P. cubensis were used for the study. Fungi on the leaves of control plants expanded quickly and lesions could be observed.
In the field trials, summer squash plants which is naturally infected by S. fuliginea and cucumber plants which is naturally infected by P. cubensis were used.
as §9, §10
Each treatment took up in four plots and was distributed randomly in each […]eld. The relative control effects were assessed after the 7th day of foliar application 18. […]

Converted amounts (≈) assume the structure as drawn. Like-named read-outs stand apart in the source and are kept apart here. Where only a bound is given, the exact number is not on record here.

On to `CO/C=C(/C(=O)OC)c1ccccc1Oc1cc(Oc2ccccc2C#N)ncn1` [AZ, Azoxystrobin, reference compound], for which the 90% effect concentration (EC90) in assay [1] (greenhouse, cucumber, sprayed after inoculation, read-out: curative EC90 against S. fuliginea) is over 500 mg/L; in assay [1] (greenhouse, cucumber, sprayed before inoculation, read-out: protective EC90 against S. fuliginea) it was 254 mg/L (≈ 630 µM); in assay [3] (greenhouse, cucumber, sprayed after inoculation, read-out: curative EC90 against P. cubensis), 50.7 mg/L (≈ 126 µM); in assay [3] (greenhouse, cucumber, sprayed before inoculation, read-out: protective EC90 against P. cubensis), 5.36 mg/L (≈ 13.3 µM). In addition, in assay [2], the “Fungus growth inhibitory rate, Pseudoperonospora cubensis” value is 94%. Besides, in assay [4] (75 g.ai/ha), the “curative effect, downy mildew (P. cubensis)” value was determined as 59.59%.
Regarding `COC=C(C(=O)OC)c1ccccc1CSc1nc2cc(OC)ccc2s1` [Compound 18], the EC90 in assay [1] (read-out: curative EC90 against S. fuliginea) is 32.9 mg/L (≈ 81.9 µM); in assay [1] (read-out: protective EC90 against S. fuliginea), 1.89 mg/L (≈ 4.71 µM); in assay [3] (read-out: curative EC90 against P. cubensis), 120 mg/L (≈ 300 µM); in assay [3] (read-out: protective EC90 against P. cubensis), 4.29 mg/L (≈ 10.7 µM). Further, the entries for the “Fungus growth inhibitory rate, Pseudoperonospora cubensis” value in assay [2] and in assay [2] (listed as Comp. 18) were “completely inhibited” and 100%, respectively. Moreover, the “curative effect, downy mildew (P. cubensis)” value in assay [4] (60 g.ai/ha) is on record as “approximately 82.59%”.
